Laboratory results from EP0584797A2, “Novel cephalosporin compounds and processes for the preparation thereof” (LUCKY LTD., priority 1992, dated 1994).
≈ marks a conversion by molar mass, not a printed value.

Experiments:
Experiment in all cases: minimal inhibitory concentration, two-fold agar dilution
Format in all cases: cell-based
[1] = test system: Pseudomonas aeruginosa ATCC 27853; conditions: ATCC27853, Muller-Hinton agar, 37°C, 20 hours, read-out: MIC values against the standard strains
In short: (§1)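 Compounds were serially diluted two-fold into Mueller-Hinton agar, and each plate was spot-inoculated with the test strain at 10⁷ CFU per ml. Plates were incubated at 37°C for 20 hours before MIC values were read.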

[2] = test system: Streptococcus faecalis ATCC 29212; conditions: Enterococcus faecalis, ATCC29212; Muller-Hinton agar; 37°C; 20 hours; read-out: MIC values against the standard strains
In short: as §1

[3] = test system: Klebsiella pneumoniae ATCC 10031; conditions: ATCC10031, Muller-Hinton agar, 37°C, 20 hours, read-out: MIC values against the standard strains
In short: as §1

[4] = test system: Acinetobacter calcoaceticus ATCC 15437; conditions: ATCC15437, Muller-Hinton agar, 37°C, 20 hours, read-out: MIC values against the standard strains
In short: as §1

[5] = test system: Providencia rettgeri ATCC 9250; conditions: ATCC9250, Muller-Hinton agar, 37°C, 20 hours, read-out: MIC values against the standard strains
In short: as §1

[6] = test system: Citrobacter freundii ATCC 8090; conditions: ATCC8090, Muller-Hinton agar, 37°C, 20 hours, read-out: MIC values against the standard strains
In short: as §1

[7] = test system: Staphylococcus epidermidis ATCC 12228; conditions: ATCC12228, Muller-Hinton agar, 37°C, 20 hours, read-out: MIC values against the standard strains
In short: as §1

[8] = test system: Escherichia coli ATCC 10536; conditions: ATCC10536, Muller-Hinton agar, 37°C, 20 hours, read-out: MIC values against the standard strains
In short: as §1

[9] = test system: Proteus mirabilis ATCC 25933; conditions: ATCC25933, Muller-Hinton agar, 37°C, 20 hours, read-out: MIC values against the standard strains
In short: as §1

[10] = test system: Escherichia coli ATCC 25922; conditions: ATCC25922, Muller-Hinton agar, 37°C, 20 hours, read-out: MIC values against the standard strains
In short: as §1

[11] = test system: Salmonella typhimurium ATCC 14028; conditions: Salmonella enterica; Muller-Hinton agar; 37°C; 20 hours; read-out: MIC values against the standard strains
In short: as §1

[12] = test system: Pseudomonas aeruginosa ATCC 25619; conditions: ATCC25619, Muller-Hinton agar, 37°C, 20 hours, read-out: MIC values against the standard strains
In short: as §1

[13] = test system: Shigella flexneri ATCC 11836; conditions: ATCC11836, Muller-Hinton agar, 37°C, 20 hours, read-out: MIC values against the standard strains
In short: as §1

[14] = test system: Micrococcus luteus ATCC 9341; conditions: ATCC9341, Muller-Hinton agar, 37°C, 20 hours, read-out: MIC values against the standard strains
In short: as §1

[15] = test system: Shigella sonnei ATCC 11060; conditions: ATCC11060, Muller-Hinton agar, 37°C, 20 hours, read-out: MIC values against the standard strains
In short: as §1

[16] = test system: Pseudomonas aeruginosa ATCC 10145; conditions: ATCC10145, Muller-Hinton agar, 37°C, 20 hours, read-out: MIC values against the standard strains
In short: as §1

[17] = test system: Staphylococcus aureus ATCC 6538p; conditions: ATCC6538P, Muller-Hinton agar, 37°C, 20 hours, read-out: MIC values against the standard strains
In short: as §1

[18] = test system: Bacillus megaterium ATCC 9885; conditions: Priestia megaterium, ATCC9885; Muller-Hinton agar; 37°C; 20 hours; read-out: MIC values against the standard strains
In short: as §1

[19] = test system: Staphylococcus aureus ATCC 10537; conditions: ATCC10537, Muller-Hinton agar, 37°C, 20 hours, read-out: MIC values against the standard strains
In short: as §1

[20] = test system: Morganella morganii ATCC 8076h; conditions: ATCC8076H, Muller-Hinton agar, 37°C, 20 hours, read-out: MIC values against the standard strains
In short: as §1

[21] = test system: Proteus vulgaris ATCC 6059; conditions: ATCC6059, Muller-Hinton agar, 37°C, 20 hours, read-out: MIC values against the standard strains
In short: as §1

[22] = test system: Serratia marcescens ATCC 27117; conditions: ATCC27117, Muller-Hinton agar, 37°C, 20 hours, read-out: MIC values against the standard strains
In short: as §1

[23] = test system: Enterobacter aerogenes ATCC 29751; conditions: Klebsiella aerogenes, ATCC29751; Muller-Hinton agar; 37°C; 20 hours; read-out: MIC values against the standard strains
In short: as §1

[24] = test system: Enterobacter cloacae ATCC 27508; conditions: ATCC27508, Muller-Hinton agar, 37°C, 20 hours, read-out: MIC values against the standard strains
In short: as §1

[25] = test system: Bacillus cereus ATCC 11778; conditions: ATCC11778, Muller-Hinton agar, 37°C, 20 hours, read-out: MIC values against the standard strains
In short: as §1

Compound	MIC [1] [µg/mL]	MIC [2] [µg/mL]	MIC [3] [µg/mL]	MIC [4] [µg/mL]	MIC [5] [µg/mL]	MIC [6] [µg/mL]	MIC [7] [µg/mL]	MIC [8] [µg/mL]	MIC [9] [µg/mL]	MIC [10] [µg/mL]	MIC [11] [µg/mL]	MIC [12] [µg/mL]	MIC [13] [µg/mL]	MIC [14] [µg/mL]	MIC [15] [µg/mL]	MIC [16] [µg/mL]	MIC [17] [µg/mL]	MIC [18] [µg/mL]	MIC [19] [µg/mL]	MIC [20] [µg/mL]	further results
CCO/N=C(\C(=O)N[C@@H]1C(=O)N2C(C(=O)[O-])=C(CSc3nc(N)cc[n+]3CC)CS[C@H]12)c1csc(N)n1 [Example 14, 7-[(Z)-2-(2-aminothiazol-4-yl)-2-(ethoxyimino)acetamido]-3-(4-amino-1-ethylpyrimidinium-2-yl)thiomethyl-3-cephem-4-carboxylate]	32 (≈ 56.7 µM)	> 128	0.13 (≈ 0.23 µM)	16 (≈ 28.3 µM)	0.063 (≈ 0.112 µM)	0.13 (≈ 0.23 µM)	0.25 (≈ 0.443 µM)	0.13 (≈ 0.23 µM)	2 (≈ 3.54 µM)	0.063 (≈ 0.112 µM)	1 (≈ 1.77 µM)	8 (≈ 14.2 µM)	0.25 (≈ 0.443 µM)	0.25 (≈ 0.443 µM)	0.25 (≈ 0.443 µM)	64 (≈ 113 µM)	0.5 (≈ 0.885 µM)	0.25 (≈ 0.443 µM)	0.25 (≈ 0.443 µM)	0.13 (≈ 0.23 µM)	MIC [21]: 2 µg/mL (≈ 3.54 µM); MIC [22]: 1 µg/mL (≈ 1.77 µM); MIC [23]: 1 µg/mL (≈ 1.77 µM); MIC [24]: 0.13 µg/mL (≈ 0.23 µM); MIC [25]: 32 µg/mL (≈ 56.7 µM)
C[n+]1ccc(N)nc1SCC1=C(C(=O)[O-])N2C(=O)[C@@H](NC(=O)/C(=N\OC(C)(C)C(=O)O)c3csc(N)n3)[C@H]2SC1 [Example 2, 7-[(Z)-2-(aminothiazol-4-yl)-2-(carboxyprop-2-oxyimino)acetamido]-3-(4-amino-1-methylpyrimidinium-2-yl)thiomethyl-3-cephem-4-carboxylate]	1 (≈ 1.64 µM)	> 128	0.031 (≈ 0.0509 µM)	4 (≈ 6.57 µM)	≤ 0.008	0.031 (≈ 0.0509 µM)	2 (≈ 3.29 µM)	0.031 (≈ 0.0509 µM)	0.031 (≈ 0.0509 µM)	0.031 (≈ 0.0509 µM)	0.13 (≈ 0.214 µM)	1 (≈ 1.64 µM)	0.016 (≈ 0.0263 µM)	0.25 (≈ 0.411 µM)	0.063 (≈ 0.104 µM)	2 (≈ 3.29 µM)	4 (≈ 6.57 µM)	0.25 (≈ 0.411 µM)	2 (≈ 3.29 µM)	≤ 0.008	MIC [21]: 0.063 µg/mL (≈ 0.104 µM); MIC [22]: 0.063 µg/mL (≈ 0.104 µM); MIC [23]: 1 µg/mL (≈ 1.64 µM); MIC [24]: ≤ 0.008 µg/mL; MIC [25]: 64 µg/mL (≈ 105 µM)
CCO/N=C(\C(=O)N[C@@H]1C(=O)N2C(C(=O)[O-])=C(CSc3nc(N)cc[n+]3C)CS[C@H]12)c1csc(N)n1 [Example 4, 7-[(Z)-2-(aminothiazol-4-yl)-2-(ethoxyimino)acetamido]-3-(4-amino-1-methylpyrimidinium-2-yl)thiomethyl-3-cephem-4-carboxylate]	8 (≈ 14.5 µM)	64 (≈ 116 µM)	≤ 0.008	8 (≈ 14.5 µM)	≤ 0.008	0.063 (≈ 0.114 µM)	0.13 (≈ 0.236 µM)	0.063 (≈ 0.114 µM)	0.5 (≈ 0.908 µM)	0.063 (≈ 0.114 µM)	0.25 (≈ 0.454 µM)	1 (≈ 1.82 µM)	0.031 (≈ 0.0563 µM)	0.063 (≈ 0.114 µM)	0.25 (≈ 0.454 µM)	16 (≈ 29.1 µM)	0.5 (≈ 0.908 µM)	0.13 (≈ 0.236 µM)	0.25 (≈ 0.454 µM)	≤ 0.008	MIC [21]: 0.5 µg/mL (≈ 0.908 µM); MIC [22]: 0.25 µg/mL (≈ 0.454 µM); MIC [23]: 0.25 µg/mL (≈ 0.454 µM); MIC [24]: ≤ 0.008 µg/mL; MIC [25]: 32 µg/mL (≈ 58.1 µM)
CC[n+]1ccc(N)nc1SCC1=C(C(=O)[O-])N2C(=O)[C@@H](NC(=O)/C(=N\OC(C)(C)C(=O)O)c3csc(N)n3)[C@H]2SC1 [Example 12, 7-[(Z)-2-(2-aminothiazol-4-yl)-2-(carboxyprop-2-oxyimino)acetamido]-3-(4-amino-1-ethylpyrimidinium-2-yl)thiomethyl-3-cephem-4-carboxylate]	8 (≈ 12.8 µM)	64 (≈ 103 µM)	≤ 0.008	8 (≈ 12.8 µM)	≤ 0.008	0.13 (≈ 0.209 µM)	2 (≈ 3.21 µM)	0.063 (≈ 0.101 µM)	1 (≈ 1.61 µM)	0.063 (≈ 0.101 µM)	1 (≈ 1.61 µM)	2 (≈ 3.21 µM)	0.25 (≈ 0.401 µM)	0.5 (≈ 0.803 µM)	0.5 (≈ 0.803 µM)	16 (≈ 25.7 µM)	4 (≈ 6.42 µM)	0.5 (≈ 0.803 µM)	2 (≈ 3.21 µM)	0.016 (≈ 0.0257 µM)	MIC [21]: 1 µg/mL (≈ 1.61 µM); MIC [22]: 0.5 µg/mL (≈ 0.803 µM); MIC [23]: 2 µg/mL (≈ 3.21 µM); MIC [24]: 0.031 µg/mL (≈ 0.0498 µM); MIC [25]: 128 µg/mL (≈ 206 µM)
CO/N=C(\C(=O)N[C@@H]1C(=O)N2C(C(=O)[O-])=C(CSc3nc(N)cc[n+]3C)CS[C@H]12)c1csc(N)n1 [Example 8, 7-[(Z)-2-(2-aminothiazol-4-yl)-2-(methoxyimino)acetamido]-3-(4-amino-1-methylpyrimidinium-2-yl)thiomethyl-3-cephem-4-carboxylate]	64 (≈ 119 µM)	64 (≈ 119 µM)	0.016 (≈ 0.0298 µM)	8 (≈ 14.9 µM)	≤ 0.008	0.063 (≈ 0.117 µM)	0.13 (≈ 0.242 µM)	0.063 (≈ 0.117 µM)	0.25 (≈ 0.466 µM)	0.063 (≈ 0.117 µM)	0.25 (≈ 0.466 µM)	8 (≈ 14.9 µM)	0.063 (≈ 0.117 µM)	0.13 (≈ 0.242 µM)	0.13 (≈ 0.242 µM)	64 (≈ 119 µM)	0.5 (≈ 0.932 µM)	0.13 (≈ 0.242 µM)	0.25 (≈ 0.466 µM)	≤ 0.008	MIC [21]: 0.25 µg/mL (≈ 0.466 µM); MIC [22]: 0.25 µg/mL (≈ 0.466 µM); MIC [23]: ≤ 0.008 µg/mL; MIC [24]: ≤ 0.008 µg/mL; MIC [25]: 64 µg/mL (≈ 119 µM)
CCO/N=C(\C(=O)N[C@@H]1C(=O)N2C(C(=O)[O-])=C(CSc3nc(N)c(N)c(N)[n+]3CC)CS[C@H]12)c1csc(N)n1 [Example 13, 7-[(Z)-2-(2-aminothiazol-4-yl)-2-(ethoxyimino)acetamido]-3-(4,5,6-triamino-1-ethylpyrimidinium-2-yl)thiomethyl-3-cephem-4-carboxylate]	32 (≈ 53.8 µM)	> 128	0.13 (≈ 0.219 µM)	16 (≈ 26.9 µM)	0.13 (≈ 0.219 µM)	0.5 (≈ 0.841 µM)	0.13 (≈ 0.219 µM)	0.063 (≈ 0.106 µM)	2 (≈ 3.36 µM)	0.063 (≈ 0.106 µM)	1 (≈ 1.68 µM)	8 (≈ 13.5 µM)	0.5 (≈ 0.841 µM)	0.13 (≈ 0.219 µM)	0.5 (≈ 0.841 µM)	64 (≈ 108 µM)	0.5 (≈ 0.841 µM)	0.13 (≈ 0.219 µM)	0.25 (≈ 0.42 µM)	0.13 (≈ 0.219 µM)	MIC [21]: 2 µg/mL (≈ 3.36 µM); MIC [22]: 1 µg/mL (≈ 1.68 µM); MIC [23]: 2 µg/mL (≈ 3.36 µM); MIC [24]: 0.016 µg/mL (≈ 0.0269 µM); MIC [25]: 64 µg/mL (≈ 108 µM)
